A word on the inhibition: it is the relative decrease from the control value, in per cent.

Results on two molecules are retold here after patent publication US6461997B1, “Triazole sulfones having herbicidal activity” (Monsanto Technology LLC, priority 1999, dated 2002).

The test system of one assay is AMARE (redroot pigweed). Kind of assay: Pre-emergence herbicidal activity, warm season. It is filed as in vivo, Amaranthus retroflexus. The following applies: for Pre-emergence activity (GR80) AMARE: GR80 = lowest tested rate (300, 100, 30, 10 g/ha) with 80% or greater inhibition, approx. 14 days after treating, 30/21° C. An outline of the steps:
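GR80 values derive from percent inhibition relative to untreated plants, read roughly 14 days after sowing and pre-emergence soil-surface treatment (compound in 50:50 acetone/water; rates typically 10, 30, 100, 300 g/ha). Warm-season weeds grew at 30/21° C day/night, cool-season ones at 18/13° C; an asterisk marks activity without reaching 80% at the highest rate.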

The next assay deals with DIGSA (large crabgrass). Kind of assay: Pre-emergence herbicidal activity, warm season. It counts as in vivo, Digitaria sanguinalis. As to conditions: for Pre-emergence activity (GR80) DIGSA: GR80 = lowest tested rate (300, 100, 30, 10 g/ha) with 80% or greater inhibition, approx. 14 days after treating, 30/21° C. An outline of the steps: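 GR80 values, pre-emergence, soil applied at 300, 100, 30, 10 g/ha. Warm regime 30/21 °C: PANMI, DIGSA. Cool regime 18/13 °C: ALOMY, POLCO. Rating ~14 d, % inhibition vs untreated.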

The test system of a further assay is SORVU (shattercane). Kind of assay: Pre-emergence herbicidal activity, warm season. It is filed as in vivo, Sorghum vulgare. The following applies: for Pre-emergence activity (GR80) SORVU: GR80 = lowest tested rate (300, 100, 30, 10 g/ha) with 80% or greater inhibition, approx. 14 days after treating, 30/21° C. The method in brief: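 Activity is expressed as the rate giving 80% inhibition, with 300, 100, 30 and 10 g/ha typically tested. An asterisk marks activity short of 80% at the top rate. Warm-season grasses were held at 30/21 °C; cool-season blackgrass and wild buckwheat at 18/13 °C; scoring at about 14 days.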

Assay [1] has as its system CHEAL (common lambsquarters). Briefly: Pre-plant incorporated (PPI) herbicidal activity, warm season. It is filed as in vivo, Chenopodium album. As to conditions: pre-plant incorporated; GR80 = lowest tested rate with 80% or greater inhibition; approx. 14 days after treating; 30/21° C. As for the experimental part:
(§1) In another set of tests, the pre-plant incorporated (PPI) activity of compounds of this invention was evaluated on the same species as for the pre-emergence tests described above. In the PPI tests the following procedure, designed to simulate PPI application, was used.
(§2) A pre-prepared topsoil mixture (described above) was placed in a pot and compacted to a depth of 1.0 to 1.25 cm from the top of the pot. Seeds of each of several monocotyledonous and dicotyledonous annual plant species were placed on top of the soil. A sufficient quantity of soil to cover the seeds and level fill the pot was weighed into an open container. A known amount of the test compound was dissolved or suspended in an organic solvent and applied by spraying to this cover soil. The cover soil was thoroughly mixed to distribute the test compound throughout the cover soil, and was then applied as a cover layer over the seeds. Untreated soil was used as a cover layer for control pots. After treatment the plants were placed in a greenhouse where they received 0.64 cm of overhead irrigation. All subsequent watering consisted of a light overhead mist and/or subirrigation as needed for germination and growth. Tables 9 and 10 below relate to warm season plant species which were placed after pre-emergence treatment in a greenhouse with a 30/21° C. day/night temperature regime. Tables 11 and 12 below relates to cool season plant species placed after pre-emergence treatment in a greenhouse or growth chamber with an 18/13° C. day/night temperature regime. Only the compounds of Examples 1, 6, 8, 11, 13 and 15-20 were included in PPI tests.
(§3) Approximately 14 days after planting and treating, the plants were observed and herbicidal efficacy recorded as percent inhibition by comparison with untreated plants.

Assay [2] concerns BRAPP (broadleaf signalgrass). The assay is described as above. It is filed as in vivo, Brachiaria platyphylla. The protocol: as §1, §2, §3
For the next assay, the system named is SINAR (wild mustard). Kind of assay: Pre-plant incorporated (PPI) herbicidal activity, cool season. It counts as in vivo, Sinapis arvensis. The following applies: pre-plant incorporated; lowest tested rate with 80% or greater inhibition; about 14 days. As for the experimental part: as §1, §2, §3
Assay [3] concerns PANMI (wild proso millet). Kind of assay: Pre-plant incorporated (PPI) herbicidal activity, warm season. It counts as in vivo, Panicum miliaceum. As for the experimental part:
as §1, §2, §3

For another assay, the system named is SETFA (giant foxtail). The assay is described as above. It is filed as in vivo, Setaria faberi. As for the experimental part:
as §1, §2, §3

Assay [4] deals with AGRRE (quackgrass (seedling)). Kind of assay: Pre-plant incorporated (PPI) herbicidal activity, cool season. It is filed as in vivo, Elymus repens. The following applies: pre-plant incorporated; lowest tested rate with 80% or greater inhibition; about 14 days. As for the experimental part: as §1, §2, §3
[5] abbreviates: pre-plant incorporated, lowest tested rate with 80% or greater inhibition, about 14 days.

On to `CCN(CC)C(=O)n1cnc(S(=O)(=O)C(F)(F)C(F)(F)SC)n1` [Example 14], for which, in the assay on AMARE (redroot pigweed), the “Pre-emergence activity (GR80) AMARE” value is listed as 300 g/ha. For the same molecule, the “Pre-emergence activity (GR80) DIGSA” value in the assay on DIGSA (large crabgrass) is given as 100 g/ha. The “Pre-emergence activity (GR80) SORVU” value with SORVU (shattercane) is “* (activity observed, at least at highest rate, but <80% inhibition)”.
In the case of `CCN(CC)C(=O)n1cnc(S(=O)(=O)C(F)F)n1` [Example 15, 1-(N,N-diethylcarbamoyl)-3-(difluoromethylsulfonyl)-1,2,4-triazole], the inhibition at 10 g/ha in the assay on AMARE (redroot pigweed) (Amaranthus retroflexus, pre-emergence application, 10 g/ha, read-out: Percent inhibition, weed AMARE) stood at 0%; in assay [2] (Urochloa platyphylla, PPI application, 10 g/ha, read-out: Percent inhibition BRAPP), 0%; with DIGSA (large crabgrass) (Digitaria sanguinalis, pre-emergence application, 10 g/ha, read-out: Percent inhibition, weed DIGSA), 70%; in [3] (Panicum miliaceum, PPI application, 10 g/ha, read-out: Percent inhibition PANMI), 10%; in the assay on SORVU (shattercane) (Sorghum bicolor, pre-emergence application, 10 g/ha, read-out: Percent inhibition, weed SORVU) it was 0%. The inhibition at 30 g/ha was found to be 0% with AMARE (redroot pigweed) (Amaranthus retroflexus, pre-emergence application, 30 g/ha, read-out: Percent inhibition, weed AMARE); 0% in assay [2] (Urochloa platyphylla, PPI application, 30 g/ha, read-out: Percent inhibition BRAPP); 40% with DIGSA (large crabgrass) (Digitaria sanguinalis, pre-emergence application, 30 g/ha, read-out: Percent inhibition, weed DIGSA); 70% in assay [3] (Panicum miliaceum, PPI application, 30 g/ha, read-out: Percent inhibition PANMI); 40% with SETFA (giant foxtail) (Setaria faberi, PPI application, 30 g/ha, read-out: Percent inhibition SETFA); 0% in the assay on SORVU (shattercane) (Sorghum bicolor, pre-emergence application, 30 g/ha, read-out: Percent inhibition, weed SORVU). The inhibition at 100 g/ha in the assay on AMARE (redroot pigweed) (Amaranthus retroflexus, pre-emergence application, 100 g/ha, read-out: Percent inhibition, weed AMARE) was determined as 0%; in [2] (Urochloa platyphylla, PPI application, 100 g/ha, read-out: Percent inhibition BRAPP) it was 95%; with DIGSA (large crabgrass) (Digitaria sanguinalis, pre-emergence application, 100 g/ha, read-out: Percent inhibition, weed DIGSA) it was 80%; in assay [3] (Panicum miliaceum, PPI application, 100 g/ha, read-out: Percent inhibition PANMI), 99%; in the assay on SETFA (giant foxtail) (Setaria faberi, PPI application, 100 g/ha, read-out: Percent inhibition SETFA), 99%; in the assay on SORVU (shattercane) (Sorghum bicolor, pre-emergence application, 100 g/ha, read-out: Percent inhibition, weed SORVU), 20%. Further, the inhibition at 300 g/ha with AMARE (redroot pigweed) (Amaranthus retroflexus, pre-emergence application, 300 g/ha, read-out: Percent inhibition, weed AMARE) stood at 40%; in assay [2] (Urochloa platyphylla, PPI application, 300 g/ha, read-out: Percent inhibition BRAPP), 99%; with DIGSA (large crabgrass) (Digitaria sanguinalis, pre-emergence application, 300 g/ha, read-out: Percent inhibition, weed DIGSA), 100%; in [3] (Panicum miliaceum, PPI application, 300 g/ha, read-out: Percent inhibition PANMI) it was 100%; with SETFA (giant foxtail) (Setaria faberi, PPI application, 300 g/ha, read-out: Percent inhibition SETFA), 100%; with SORVU (shattercane) (Sorghum bicolor, pre-emergence application, 300 g/ha, read-out: Percent inhibition, weed SORVU), 60%. Further, the inhibition at 900 g/ha with AMARE (redroot pigweed) (Amaranthus retroflexus, pre-emergence application, 900 g/ha, read-out: Percent inhibition, weed AMARE) was 95%; in [2] (Urochloa platyphylla, PPI application, 900 g/ha, read-out: Percent inhibition BRAPP) it was 100%; in the assay on DIGSA (large crabgrass) (Digitaria sanguinalis, pre-emergence application, 900 g/ha, read-out: Percent inhibition, weed DIGSA), 100%; in [3] (Panicum miliaceum, PPI application, 900 g/ha, read-out: Percent inhibition PANMI) it was 100%; with SETFA (giant foxtail) (Setaria faberi, PPI application, 900 g/ha, read-out: Percent inhibition SETFA), 100%; in the assay on SORVU (shattercane) (Sorghum bicolor, pre-emergence application, 900 g/ha, read-out: Percent inhibition, weed SORVU) it was 95%. Moreover, in the assay on AMARE (redroot pigweed), the “Pre-emergence activity (GR80) AMARE” value amounted to 30 g/ha. In [1], the “PPI activity (GR80) CHEAL” value is given as 100 g/ha. Further, the “PPI activity GR80, BRAPP” value in [2] (setting [5]) was 100 g/ha. The “Pre-emergence activity (GR80) DIGSA” value in the assay with DIGSA (large crabgrass) was 30 g/ha. Besides, in the assay with SINAR (wild mustard), the “PPI activity GR80, SINAR” value came out at 100 g/ha. For the same molecule, the “PPI activity GR80, PANMI” value in assay [3] (setting [5]) amounted to 30 g/ha. Also, the “PPI activity GR80, SETFA” value with SETFA (giant foxtail) (setting [5]) came out at 30 g/ha. In assay [4], the “PPI activity GR80, AGRRE” value amounted to 300 g/ha. Further, in the assay with SORVU (shattercane), the “Pre-emergence activity (GR80) SORVU” value is “* (activity observed, at least at highest rate, but <80% inhibition)”.
